From US5602239A, “5-O-desosaminylerythronolide derivatives” (Taisho Pharmaceutical Co., Ltd., priority 1993, dated 1997)
In brackets after ≈: the same amount, converted by molar mass.

Tests used:
Type in all cases: cell-based
E. faecalis CSJ 1212 = test: In vitro antibacterial activity (MIC), E. faecalis CSJ 1212; conditions: Enterococcus faecalis, CSJ1212, sensitive disc media, Japan Society of Chemotherapy method, read-out: MIC value (Minimum Inhibitory Concentration)
Description: (§1) The in vitro antibacterial activity of the compound of the present invention obtained in Example 9 against various experimental bacteria was measured using sensitive disc media (produced by Eiken Chemical Co.) according to the MIC measuring method specified by the Japan Society of Chemotherapy. 6-O-Methylerythromycin A was used as a comparative drug.

S. aureus B1 = test: In vitro antibacterial activity (MIC), S. aureus B1; conditions: Staphylococcus aureus, sensitive disc media, Japan Society of Chemotherapy method, read-out: MIC value (Minimum Inhibitory Concentration)
Description: as §1

S. aureus 209P-JC = test: In vitro antibacterial activity (MIC), S. aureus 209P-JC; conditions: Staphylococcus aureus, sensitive disc media, Japan Society of Chemotherapy method, read-out: MIC value (Minimum Inhibitory Concentration)
Description: as §1

S. epidermides IID 866 = test: In vitro antibacterial activity (MIC), S. epidermides IID 866; conditions: sensitive disc media, Japan Society of Chemotherapy method, read-out: MIC value (Minimum Inhibitory Concentration)
Description: as §1

S. aureus Smith 4 = test: In vitro antibacterial activity (MIC), S. aureus Smith 4; conditions: Staphylococcus aureus, SMITH4, sensitive disc media, Japan Society of Chemotherapy method, read-out: MIC value (Minimum Inhibitory Concentration)
Description: as §1

Row | SMILES | MIC (E. faecalis CSJ 1212) | MIC (S. aureus B1) | MIC (S. aureus 209P-JC) | MIC (S. epidermides IID 866) | MIC (S. aureus Smith 4)
1 | CC[C@H]1OC(=O)[C@H](C)[C@@H](O[C@H]2C[C@@](C)(OC)[C@@H](O)[C@H](C)O2)[C@H](C)[C@@H](O[C@@H]2O[C@H](C)C[C@H](N(C)C)[C@H]2O)[C@](C)(OC)C[C@@H](C)C(=O)[C@H](C)[C@@H](O)[C@]1(C)O [Comparative drug, 6-O-Methylerythromycin A] | 0.78 µg/mL (≈ 1.04 µM) | > 100 µg/mL | 0.1 µg/mL (≈ 0.134 µM) | 0.1 µg/mL (≈ 0.134 µM) | 0.1 µg/mL (≈ 0.134 µM)
2 | CC[C@H]1OC(=O)[C@H](C)[C@@H](Oc2ccc([N+](=O)[O-])cc2[N+](=O)[O-])[C@H](C)[C@@H](O[C@@H]2O[C@H](C)C[C@H](N(C)C)[C@H]2O)[C@](C)(OC)C[C@@H](C)C(=O)[C@H](C)[C@H]2OC(=O)O[C@@]21C [Example 9, 3-O-(2,4-dinitro)phenyl-5-O-desosaminyl-6-O-methylerythronolide A 11,12-cyclic carbonate] | 0.2 µg/mL (≈ 0.256 µM) | 0.78 µg/mL (≈ 0.998 µM) | 0.1 µg/mL (≈ 0.128 µM) | 0.1 µg/mL (≈ 0.128 µM) | 0.1 µg/mL (≈ 0.128 µM)
